Experimental data reported in PubChem BioAssay AID328 (DTP/NCI, 2004).
Inconclusive results and toxic doses are left out. Rule for the calls: active = survival T/C of 150% or more; inactive = T/C below 125% in these data.

Tested on: BDF1 mice, P388 leukemia ip, median survival T/C
Assay: NCI In Vivo Anticancer Drug Screen. Data for tumor model P388 Leukemia (intraperitoneal) in B6D2F1 (BDF1) mice
Conditions: endpoint: median survival time, higher = longer survival
How it was run: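 Compound-treated tumour-bearing mice were compared with vehicle-treated controls. Survival was recorded, and the value is the treated-group measurement divided by the control-group measurement (T/C).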

[1] = dose: 200.0 mg/kg/injection, schedule: Q04DX003 (ip), vehicle: Klucel (hydroxypropylcellulose) (HPC)
[2] = dose: 100.0 mg/kg/injection, schedule: Q04DX003 (ip), vehicle: Klucel (hydroxypropylcellulose) (HPC)
[3] = dose: 100.0 mg/kg/injection, schedule: Q01DX009 (ip), vehicle: Klucel (hydroxypropylcellulose) (HPC)
[4] = dose: 200.0 mg/kg/injection, schedule: Q01DX009 (ip), vehicle: Klucel (hydroxypropylcellulose) (HPC)
[5] = dose: 400.0 mg/kg/injection, schedule: Q01DX009 (ip), vehicle: Klucel (hydroxypropylcellulose) (HPC)
[6] = dose: 100.0 mg/kg/injection, schedule: Q04DX003 (ip), vehicle: saline with Tween-80
[7] = dose: 200.0 mg/kg/injection, schedule: Q04DX003 (ip), vehicle: saline with Tween-80

Measured: T/C

Cc1c[n+]2c3ccccc3c3ccccc3c2s1
inactive: dose: 1.5 mg/kg/injection, schedule: Q01DX009 (ip), vehicle: Klucel (hydroxypropylcellulose) (HPC) 95 % of control | dose: 2.5 mg/kg/injection, schedule: Q01DX009 (ip), vehicle: Klucel (hydroxypropylcellulose) (HPC) 100 % of control | dose: 3.0 mg/kg/injection, schedule: Q01DX009 (ip), vehicle: Klucel (hydroxypropylcellulose) (HPC) 90 % of control | dose: 5.0 mg/kg/injection, schedule: Q01DX009 (ip), vehicle: Klucel (hydroxypropylcellulose) (HPC) 122 % of control | dose: 6.0 mg/kg/injection, schedule: Q01DX009 (ip), vehicle: Klucel (hydroxypropylcellulose) (HPC) 86 % of control | dose: 10.0 mg/kg/injection, schedule: Q01DX009 (ip), vehicle: Klucel (hydroxypropylcellulose) (HPC) 118 % of control | dose: 10.0 mg/kg/injection, schedule: Q04DX003 (ip), vehicle: Klucel (hydroxypropylcellulose) (HPC) 118 % of control | dose: 20.0 mg/kg/injection, schedule: Q04DX003 (ip), vehicle: Klucel (hydroxypropylcellulose) (HPC) 95 % of control | dose: 80.0 mg/kg/injection, schedule: Q04DX003 (ip), vehicle: Klucel (hydroxypropylcellulose) (HPC) 90 % of control | [1] 90 % of control

O=C(CCN1CC1)Nc1ccc(Cl)c(Cl)c1
inactive: dose: 25.0 mg/kg/injection, schedule: Q04DX003 (ip), vehicle: Klucel (hydroxypropylcellulose) (HPC) 90 % of control | dose: 50.0 mg/kg/injection, schedule: Q04DX003 (ip), vehicle: Klucel (hydroxypropylcellulose) (HPC) 104 % of control | [2] 100 % of control

CNC(=O)C(C)(C)c1ccccc1
inactive: [3] 90 % of control | [4] 90 % of control | [5] 104 % of control

COc1cc[n+]([O-])cc1/C=C/c1c[n+]([O-])ccc1OC
inactive: dose: 25.0 mg/kg/injection, schedule: Q04DX003 (ip), vehicle: saline with Tween-80 94 % of control | dose: 50.0 mg/kg/injection, schedule: Q04DX003 (ip), vehicle: saline with Tween-80 119 % of control | [6] 103 % of control | [7] 108 % of control

COC(=O)c1c(O)cc(OC)cc1OC
inactive: [3] 111 % of control | [2] 100 % of control | [4] 100 % of control | [1] 95 % of control | [5] 100 % of control | dose: 400.0 mg/kg/injection, schedule: Q04DX003 (ip), vehicle: Klucel (hydroxypropylcellulose) (HPC) 95 % of control

CCOC(=O)C(OCc1ccccc1)C(=O)OCC
inactive: dose: 100.0 mg/kg/injection, schedule: Q01DX009 (ip), vehicle: saline with Tween-80 87 % of control | dose: 100.0 mg/kg/injection, schedule: Q04DX003 (ip), vehicle: saline 115 % of control | dose: 200.0 mg/kg/injection, schedule: Q01DX009 (ip), vehicle: saline with Tween-80 104 % of control | dose: 200.0 mg/kg/injection, schedule: Q04DX003 (ip), vehicle: saline 90 % of control | dose: 400.0 mg/kg/injection, schedule: Q01DX009 (ip), vehicle: saline with Tween-80 108 % of control | dose: 400.0 mg/kg/injection, schedule: Q04DX003 (ip), vehicle: saline 90 % of control

N#CN(Cc1ccc(Cl)cc1Cl)C(=O)OCOc1ccc(Cl)cc1
inactive: [6] 100 % of control | [7] 90 % of control | dose: 400.0 mg/kg/injection, schedule: Q04DX003 (ip), vehicle: saline with Tween-80 109 % of control
